According to the supplement of paper PMC11451515:

Test system: SEM cells
Assay: cell viability relative to DMSO control; higher = less cytotoxic
Details: 48 h
How it was run: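 In 1536-well plates, 5 μl of leukemia cells were seeded per well: 500 cells/well for NOMO1 or SEM and 1000 cells/well for P12-Ichikawa. Each line had first been adapted for at least four passages in each medium. Library compounds in DMSO were pin-dosed at 11 threefold concentrations between 47 μM and 0.79 nM, and CellTiter-Glo One luminescence was read after 48 h at 37°C. Viability is a per-plate percentage relative to DMSO wells, with cell-free wells as background.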

[1] = HPLM + 10% dialyzed FBS, 0.000781 µM
[2] = HPLM + 10% dialyzed FBS, 0.00234 µM
[3] = HPLM + 10% dialyzed FBS, 0.00702 µM
[4] = HPLM + 10% dialyzed FBS, 0.0211 µM
[5] = HPLM + 10% dialyzed FBS, 0.0632 µM
[6] = HPLM + 10% dialyzed FBS, 0.19 µM
[7] = HPLM + 10% dialyzed FBS, 0.569 µM
[8] = HPLM + 10% dialyzed FBS, 1.71 µM
[9] = HPLM + 10% dialyzed FBS, 5.12 µM
[10] = HPLM + 10% dialyzed FBS, 15.4 µM
[11] = HPLM + 10% dialyzed FBS, 46.1 µM
[12] = RPMI 5 mM glucose + 10% FBS, 0.000781 µM
[13] = RPMI 5 mM glucose + 10% FBS, 0.00234 µM
[14] = RPMI 5 mM glucose + 10% FBS, 0.00702 µM
[15] = RPMI 5 mM glucose + 10% FBS, 0.0211 µM
[16] = RPMI 5 mM glucose + 10% FBS, 0.0632 µM
[17] = RPMI 5 mM glucose + 10% FBS, 0.19 µM
[18] = RPMI 5 mM glucose + 10% FBS, 0.569 µM
[19] = RPMI 5 mM glucose + 10% FBS, 1.71 µM
[20] = RPMI 5 mM glucose + 10% FBS, 5.12 µM
[21] = RPMI 5 mM glucose + 10% FBS, 15.4 µM
[22] = RPMI 5 mM glucose + 10% FBS, 46.1 µM
[23] = RPMI 5 mM glucose + 10% dialyzed FBS, 0.000781 µM
[24] = RPMI 5 mM glucose + 10% dialyzed FBS, 0.00234 µM
[25] = RPMI 5 mM glucose + 10% dialyzed FBS, 0.00702 µM
[26] = RPMI 5 mM glucose + 10% dialyzed FBS, 0.0211 µM
[27] = RPMI 5 mM glucose + 10% dialyzed FBS, 0.0632 µM
[28] = RPMI 5 mM glucose + 10% dialyzed FBS, 0.19 µM
[29] = RPMI 5 mM glucose + 10% dialyzed FBS, 0.569 µM
[30] = RPMI 5 mM glucose + 10% dialyzed FBS, 1.71 µM
[31] = RPMI 5 mM glucose + 10% dialyzed FBS, 5.12 µM
[32] = RPMI 5 mM glucose + 10% dialyzed FBS, 15.4 µM
[33] = RPMI 5 mM glucose + 10% dialyzed FBS, 46.1 µM

| Structure (SMILES) | cell viability [1] [%] | cell viability [2] [%] | cell viability [3] [%] | cell viability [4] [%] | cell viability [5] [%] | cell viability [6] [%] | cell viability [7] [%] | cell viability [8] [%] | cell viability [9] [%] | cell viability [10] [%] | cell viability [11] [%] | cell viability [12] [%] | cell viability [13] [%] | cell viability [14] [%] | cell viability [15] [%] | cell viability [16] [%] | cell viability [17] [%] | cell viability [18] [%] | cell viability [19] [%] | cell viability [20] [%] | cell viability [21] [%] | cell viability [22] [%] | cell viability [23] [%] | cell viability [24] [%] | cell viability [25] [%] | cell viability [26] [%] | cell viability [27] [%] | cell viability [28] [%] | cell viability [29] [%] | cell viability [30] [%] | cell viability [31] [%] | cell viability [32] [%] | cell viability [33] [%] |
| --- | --- | --- | --- | --- | --- | --- | --- | --- | --- | --- | --- | --- | --- | --- | --- | --- | --- | --- | --- | --- | --- | --- | --- | --- | --- | --- | --- | --- | --- | --- | --- | --- | --- |
| C#C[C@]1(O)CC[C@H]2[C@@H]3CCc4cc(O)ccc4[C@H]3CC[C@@]21C | 86.5 | 103 | 99.6 | 96.6 | 92.2 | 99.4 | 103 | 98.9 | 105 | 68 | 47.1 | 92.3 | 116 | 115 | 113 | 105 | 107 | 111 | 104 | 99.8 | 62.9 | 48.7 | 93.7 | 111 | 108 | 108 | 108 | 98.2 | 95.1 | 114 | 100 | 68.8 | 57.6 |
| C[C@@]12C[C@@]3(O)O[C@@H](O1)[C@]1(COC(=O)c4ccccc4)[C@H]3C[C@@]12O[C@@H]1O[C@H](CO)[C@@H](O)[C@H](O)[C@H]1O | 96 | 91.2 | 109 | 117 | 98.5 | 103 | 108 | 96.7 | 107 | 113 | 107 | 105 | 87 | 101 | 100 | 124 | 92.6 | 116 | 138 | 111 | 105 | 98.9 | 99 | 89.8 | 118 | 122 | 121 | 101 | 119 | 115 | 122 | 107 | 122 |
| OC[C@H]1OCC(O1)[N@@]2C=CC(N)=NC2=O (stereo not given in full) | 108 | 81.3 | 90.7 | 106 | 115 | 103 | 107 | 99.3 | 96.3 | 102 | 96.6 | 73.1 | 62.4 | 77.8 | 77.5 | 78 | 84.2 | 80 | 64.4 | 70.7 | 63.8 | 56.3 | 96.7 | 95.8 | 96.3 | 106 | 113 | 110 | 114 | 103 | 106 | 101 | 88.8 |
| COc1ccc(C(C)=O)c(O)c1 | 93.7 | 98.2 | 110 | 95.1 | 94.2 | 111 | 108 | 112 | 114 | 121 | 112 | 104 | 121 | 118 | 124 | 87.8 | 114 | 121 | 137 | 120 | 118 | 121 | 105 | 92.2 | 118 | 125 | 108 | 126 | 102 | 133 | 132 | 123 | 117 |
| CSCC[C@@H](NC(=O)[C@@H](Cc1ccccc1)NC(=O)CNC(=O)CNC(=O)[C@@H](N)Cc1ccc(O)cc1)C(=O)O | 73.5 | 44.7 | 93 | 22 | 106 | 103 | 94.9 | 102 | 98.9 | 91.6 | 99.6 | 72.6 | 25.7 | 80.9 | 15.5 | 103 | 104 | 90.5 | 107 | 96.6 | 99.9 | 120 | 81.9 | 38.3 | 102 | 20.9 | 95.6 | 103 | 92.3 | 99.7 | 106 | 103 | 99.8 |
| S=P(N1CC1)(N1CC1)N1CC1 | 102 | 106 | 110 | 96.7 | 104 | 107 | 103 | 98.5 | 85.1 | 93.3 | 39 | – | – | – | – | – | – | – | – | – | – | – | 99.6 | 108 | 106 | 105 | 105 | 107 | 93.6 | 90.4 | 95.1 | 78.5 | 41.5 |
| CCOC(=O)C/1=C(O)/C(=O)N(CC2=CC=CC=C2)C1 | 97.8 | 98.5 | 98 | 91 | 110 | 108 | 108 | 120 | 111 | 106 | 86.1 | 99 | 104 | 94.4 | 90.1 | 111 | 111 | 99.4 | 99.2 | 98.3 | 94.9 | 83.9 | 119 | 113 | 105 | 125 | 109 | 111 | 108 | 125 | 108 | 106 | 93.7 |
